The results in this text go back to BindingDB's records for doi:10.1021/jm401604x (University of Auckland, 2014).

This assay can be described thus: Inhibition of recombinant perforin (unknown origin)-mediated lysis of human [51Cr]-labelled Jurkat cells assessed as release of [51Cr] preincubated for 30 mins followed by addition of cells measured after 4 hrs by gamma counting analysis.
Regarding `CN1CCN(CCCN2Cc3cc(-c4ccc(/C=C5/NC(=S)NC5=O)s4)ccc3C2=O)CC1`, the IC50 (as a rule, the concentration needed to halve the response being measured) is greater than 20 µM.
The same measure for `CN(C)CCCN1Cc2cc(-c3ccc(/C=C4/NC(=S)NC4=O)s3)ccc2C1=O`: greater than 20 µM; for `O=C1NC(=S)N/C1=C/c1ccc(-c2ccc(C(=O)NCCN3CCOCC3)cc2)s1`: greater than 20 µM; for `O=C1NC(=S)N/C1=C/c1ccc(-c2ccc(C(=O)N3CCOCC3)cc2)s1`: greater than 20 µM.
In the case of `O=C1NC(=S)N/C1=C/c1ccc(-c2ccccc2Cl)s1`, the IC50 is greater than 20 µM.
For the compound `O=C1NC(=S)N/C1=C/c1ccc(-c2ccccc2)s1`, the 50% inhibitory concentration (IC50) was greater than 20 µM.
